{"source": "patent US8809001B2", "about": "“High throughput assays for inhibitors and activators of PAQR receptors” (University of Florida Research Foundation, Inc., priority 2007, dated 2014)", "biological_target": "T1, AdipoR1 (Homo sapiens, UniProt Q96A54)", "T1 construct": "expressed in transfected cells; host or cells: Saccharomyces cerevisiae BY4742, GAL1-driven pYES260 plasmid", "T1 sequence (Q96A54 1-375)": "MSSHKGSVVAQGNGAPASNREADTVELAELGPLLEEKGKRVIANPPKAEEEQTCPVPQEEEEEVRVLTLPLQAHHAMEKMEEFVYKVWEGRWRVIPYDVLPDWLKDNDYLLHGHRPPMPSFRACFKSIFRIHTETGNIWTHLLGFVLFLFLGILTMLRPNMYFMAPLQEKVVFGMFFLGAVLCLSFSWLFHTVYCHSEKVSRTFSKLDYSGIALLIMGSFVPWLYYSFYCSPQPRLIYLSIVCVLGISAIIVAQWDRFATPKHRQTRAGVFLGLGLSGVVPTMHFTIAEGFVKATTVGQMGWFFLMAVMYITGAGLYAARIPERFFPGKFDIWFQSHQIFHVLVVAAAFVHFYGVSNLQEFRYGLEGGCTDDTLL", "test": "FET3-lacZ (pFET3-397) reporter repression in yeast expressing AdipoR1", "assay_type": "cell-based", "conditions": "concentrations as high as 10 μM", "description": "IZH1-4 were cloned into pRS316-GAL1 via gap repair as previously described (Lyons et al., 2004). The triple hemaglutinin epitope (3×HA) tagged construct of the IZH2 gene was generated by replacing the ZRC1 promoter and open reading frame in the YCpZRC1-HA plasmid (MacDiarmid et al., 2002) with those of IZH2. This was accomplished by gap repair of Age I-digested YCpZRC1-HA to generate pIZH2-3×HA. This construct has the IZH2 gene driven by its native promoter and retains the ZRC1 terminator sequence. The native IZH2 promoter was then exchanged with the GAL1 promoter using gap repair of pIZH2-3×HA plasmids cut with EcoN I. AdipoR1 and AdipoR2 were amplified from cDNAs obtained from OpenBiosystems (Accession #: BC010743 and BC051858, respectively). PCR products were cloned into NcoI/BamHI digested pYES260 vector (Melcher, 2000) by gap repair allowing for GAL1-driven expression. Plasmids containing GAL1-driven the TAP (Tandem Affinity Purification) tagged NRG1 and NRG2 constructs were purchased from OpenBiosystems. […]\nAssays and growth conditions. […] Cells were allowed to grow to mid-log phase at which time the activity of the FET3 gene was monitored using a FET3-lacZ promoter-reporter construct. lacZ activities are presented as a percentage of activity seen in untreated cells expressing the appropriate empty expression vector control. […]"}
{"smiles": "CC(=O)[C@H]1CC[C@H]2[C@@H]3CCC4=CC(=O)CC[C@]4(C)[C@H]3CC[C@]12C", "note": "[Progesterone, progesterone]", "values": [{"measurement": "response of AdipoR1 to progesterone", "value": "do not respond"}]}
